Experimental data reported in PubChem BioAssay (NCI).
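Abbreviation: GI50, concentration required for 50% inhibition of growth. Definition used: TGI = concentration required for complete inhibition of growth.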

What was measured:
Assay in all cases: NCI anticancer screen, dose series, 384-well format
786-0 renal = system: 786-0 renal
A498 renal = system: A498 renal
A549 NSCLC = system: A549 NSCLC
ACHN renal = system: ACHN renal
BT-549 breast = system: BT-549 breast
CAKI-1 renal = system: CAKI-1 renal
CCRF-CEM leukemia = system: CCRF-CEM leukemia
COLO 205 colon = system: COLO 205 colon
DU-145 prostate = system: DU-145 prostate
EKVX NSCLC = system: EKVX NSCLC
HCT-116 colon = system: HCT-116 colon
HCT-15 colon = system: HCT-15 colon
HL-60(TB) leukemia = system: HL-60(TB) leukemia
HOP-62 NSCLC = system: HOP-62 NSCLC
HOP-92 NSCLC = system: HOP-92 NSCLC
HS 578T breast = system: HS 578T breast
HT29 colon = system: HT29 colon
K-562 leukemia = system: K-562 leukemia
KM12 colon = system: KM12 colon
M14 melanoma = system: M14 melanoma
MDA-MB-435 melanoma = system: MDA-MB-435 melanoma
MDA-MB-468 breast = system: MDA-MB-468 breast
MOLT-4 leukemia = system: MOLT-4 leukemia
NCI-H23 lung = system: NCI-H23 lung
NCI-H322M lung = system: NCI-H322M lung
NCI-H460 NSCLC = system: NCI-H460 NSCLC
NCI/ADR-RES ovarian = system: NCI/ADR-RES ovarian
OVCAR-3 ovarian = system: OVCAR-3 ovarian
OVCAR-4 ovarian = system: OVCAR-4 ovarian
OVCAR-5 ovarian = system: OVCAR-5 ovarian
OVCAR-8 ovarian = system: OVCAR-8 ovarian
PC-3 prostate = system: PC-3 prostate
RPMI-8226 leukemia = system: RPMI-8226 leukemia
RXF 393 renal = system: RXF 393 renal
SF-268 CNS = system: SF-268 CNS
SF-295 CNS = system: SF-295 CNS
SF-539 CNS = system: SF-539 CNS
SK-MEL-2 melanoma = system: SK-MEL-2 melanoma
SK-MEL-28 melanoma = system: SK-MEL-28 melanoma
SK-MEL-5 melanoma = system: SK-MEL-5 melanoma
SN12C renal = system: SN12C renal
SNB-19 CNS = system: SNB-19 CNS
T-47D breast = system: T-47D breast
TK-10 renal = system: TK-10 renal
U251 glioblastoma = system: U251 glioblastoma
UACC-62 melanoma = system: UACC-62 melanoma
UO-31 renal = system: UO-31 renal

**Q.** For `O=C(c1ccccc1O)c1[nH]c(Cl)c(Cl)c1-n1c(C(=O)c2ccccc2O)cc(Cl)c1Cl`, which GI50 ([…]-0 renal) is on record?
**A.** 619 nM

**Q.** What about the TGI (786-0 renal) of the same molecule?
**A.** 1920 nM

**Q.** What about the GI50 (A498 renal) of the same molecule?
**A.** 399 nM

**Q.** What about the TGI (A498 renal) of the same molecule?
**A.** 1760 nM

**Q.** And the GI50 (A549 NSCLC)?
**A.** 654 nM

**Q.** What about the TGI (A549 NSCLC) of the same molecule?
**A.** 2480 nM

**Q.** What about the GI50 (ACHN renal) of the same molecule?
**A.** 649 nM

**Q.** What about the TGI (ACHN renal) of the same molecule?
**A.** 2780 nM

**Q.** What about the GI50 (BT-549 breast) of the same molecule?
**A.** 631 nM

**Q.** What about the TGI (BT-549 breast) of the same molecule?
**A.** 1620 nM

**Q.** And the GI50 (CAKI-1 renal)?
**A.** 411 nM

**Q.** And the TGI (CAKI-1 renal)?
**A.** 2190 nM

**Q.** What about the GI50 (CCRF-CEM leukemia) of the same molecule?
**A.** 240 nM

**Q.** And the TGI (CCRF-CEM leukemia)?
**A.** 705 nM

**Q.** And the GI50 (COLO 205 colon)?
**A.** 747 nM

**Q.** And the TGI (COLO 205 colon)?
**A.** 3.8 µM

**Q.** What about the GI50 (DU-145 prostate) of the same molecule?
**A.** 681 nM

**Q.** What about the TGI (DU-145 prostate) of the same molecule?
**A.** 8.4 µM

**Q.** What about the GI50 (EKVX NSCLC) of the same molecule?
**A.** 230 nM

**Q.** And the TGI (EKVX NSCLC)?
**A.** 842 nM

**Q.** What about the GI50 (HCT-116 colon) of the same molecule?
**A.** 248 nM

**Q.** And the TGI (HCT-116 colon)?
**A.** 930 nM

**Q.** And the GI50 (HCT-15 colon)?
**A.** 277 nM

**Q.** What about the TGI (HCT-15 colon) of the same molecule?
**A.** 1040 nM

**Q.** What about the GI50 (HL-60(TB) leukemia) of the same molecule?
**A.** 257 nM

**Q.** What about the TGI (HL-60(TB) leukemia) of the same molecule?
**A.** 572 nM

**Q.** And the GI50 (HOP-62 NSCLC)?
**A.** 552 nM

**Q.** And the TGI (HOP-62 NSCLC)?
**A.** 1590 nM

**Q.** And the GI50 (HOP-92 NSCLC)?
**A.** 458 nM

**Q.** And the TGI (HOP-92 NSCLC)?
**A.** 1160 nM

**Q.** And the GI50 (HS 578T breast)?
**A.** 157 nM

**Q.** And the TGI (HS 578T breast)?
**A.** 440 nM

**Q.** And the GI50 (HT29 colon)?
**A.** 518 nM

**Q.** What about the TGI (HT29 colon) of the same molecule?
**A.** 4.33 µM

**Q.** What about the GI50 (K-562 leukemia) of the same molecule?
**A.** 238 nM

**Q.** And the TGI (K-562 leukemia)?
**A.** 3.07 µM

**Q.** And the GI50 (KM12 colon)?
**A.** 537 nM

**Q.** What about the TGI (KM12 colon) of the same molecule?
**A.** 1930 nM

**Q.** What about the GI50 (M14 melanoma) of the same molecule?
**A.** 682 nM

**Q.** What about the TGI (M14 melanoma) of the same molecule?
**A.** 2380 nM

**Q.** What about the GI50 (MDA-MB-435 melanoma) of the same molecule?
**A.** 801 nM

**Q.** What about the TGI (MDA-MB-435 melanoma) of the same molecule?
**A.** 3.05 µM

**Q.** And the GI50 (MDA-MB-468 breast)?
**A.** 13 nM

**Q.** And the TGI (MDA-MB-468 breast)?
**A.** 267 nM

**Q.** And the GI50 (MOLT-4 leukemia)?
**A.** 301 nM

**Q.** And the TGI (MOLT-4 leukemia)?
**A.** 768 nM

**Q.** What about the GI50 (NCI-H23 lung) of the same molecule?
**A.** 220 nM

**Q.** What about the TGI (NCI-H23 lung) of the same molecule?
**A.** 610 nM

**Q.** What about the GI50 (NCI-H322M lung) of the same molecule?
**A.** 302 nM

**Q.** And the TGI (NCI-H322M lung)?
**A.** 1020 nM

**Q.** What about the GI50 (NCI-H460 NSCLC) of the same molecule?
**A.** 288 nM

**Q.** What about the TGI (NCI-H460 NSCLC) of the same molecule?
**A.** 938 nM

**Q.** And the GI50 (NCI/ADR-RES ovarian)?
**A.** 384 nM

**Q.** And the TGI (NCI/ADR-RES ovarian)?
**A.** 1270 nM

**Q.** What about the GI50 (OVCAR-3 ovarian) of the same molecule?
**A.** 353 nM

**Q.** And the TGI (OVCAR-3 ovarian)?
**A.** 1500 nM

**Q.** And the GI50 (OVCAR-4 ovarian)?
**A.** 936 nM

**Q.** And the TGI (OVCAR-4 ovarian)?
**A.** 4.79 µM

**Q.** What about the GI50 (OVCAR-5 ovarian) of the same molecule?
**A.** 1440 nM

**Q.** And the TGI (OVCAR-5 ovarian)?
**A.** 4.71 µM

**Q.** And the GI50 (OVCAR-8 ovarian)?
**A.** 276 nM

**Q.** And the TGI (OVCAR-8 ovarian)?
**A.** 959 nM

**Q.** And the GI50 (PC-3 prostate)?
**A.** 292 nM

**Q.** And the TGI (PC-3 prostate)?
**A.** 978 nM

**Q.** And the GI50 (RPMI-8226 leukemia)?
**A.** 196 nM

**Q.** What about the TGI (RPMI-8226 leukemia) of the same molecule?
**A.** 388 nM

**Q.** And the GI50 (RXF 393 renal)?
**A.** 600 nM

**Q.** And the TGI (RXF 393 renal)?
**A.** 2120 nM

**Q.** And the GI50 (SF-268 CNS)?
**A.** 116 nM

**Q.** What about the TGI (SF-268 CNS) of the same molecule?
**A.** 871 nM

**Q.** What about the GI50 (SF-295 CNS) of the same molecule?
**A.** 448 nM

**Q.** And the TGI (SF-295 CNS)?
**A.** 1300 nM

**Q.** And the GI50 (SF-539 CNS)?
**A.** 537 nM

**Q.** What about the TGI (SF-539 CNS) of the same molecule?
**A.** 1630 nM

**Q.** What about the GI50 (SK-MEL-2 melanoma) of the same molecule?
**A.** 333 nM

**Q.** And the TGI (SK-MEL-2 melanoma)?
**A.** 922 nM

**Q.** And the GI50 (SK-MEL-28 melanoma)?
**A.** 367 nM

**Q.** What about the TGI (SK-MEL-28 melanoma) of the same molecule?
**A.** 1430 nM

**Q.** And the GI50 (SK-MEL-5 melanoma)?
**A.** 417 nM

**Q.** What about the TGI (SK-MEL-5 melanoma) of the same molecule?
**A.** 913 nM

**Q.** What about the GI50 (SN12C renal) of the same molecule?
**A.** 209 nM

**Q.** And the TGI (SN12C renal)?
**A.** 746 nM

**Q.** What about the GI50 (SNB-19 CNS) of the same molecule?
**A.** 373 nM

**Q.** What about the TGI (SNB-19 CNS) of the same molecule?
**A.** 3.96 µM

**Q.** And the GI50 (T-47D breast)?
**A.** 218 nM

**Q.** What about the TGI (T-47D breast) of the same molecule?
**A.** 883 nM

**Q.** And the GI50 (TK-10 renal)?
**A.** 386 nM

**Q.** And the TGI (TK-10 renal)?
**A.** 4.5 µM

**Q.** What about the GI50 (U251 glioblastoma) of the same molecule?
**A.** 331 nM

**Q.** What about the TGI (U251 glioblastoma) of the same molecule?
**A.** 1130 nM

**Q.** What about the GI50 (UACC-62 melanoma) of the same molecule?
**A.** 599 nM

**Q.** And the TGI (UACC-62 melanoma)?
**A.** 1860 nM

**Q.** And the GI50 (UO-31 renal)?
**A.** 493 nM

**Q.** And the TGI (UO-31 renal)?
**A.** 1820 nM
